Structures can show the parent of a compound that is named as a salt. Where two headings read alike, the source gives them in different places.
Legend:
[1] = target: T1, recombinant human B1 receptors (Homo sapiens, UniProt P46663); assay: Functional assay: antagonist potency by cytosolic calcium measurement (fluo-4, plate reader fluorimeter) in CHO-B1 cells; type: cell-based
T1 construct: host or cells: CHO (CHO-B1)
T1 sequence (P46663 1-353): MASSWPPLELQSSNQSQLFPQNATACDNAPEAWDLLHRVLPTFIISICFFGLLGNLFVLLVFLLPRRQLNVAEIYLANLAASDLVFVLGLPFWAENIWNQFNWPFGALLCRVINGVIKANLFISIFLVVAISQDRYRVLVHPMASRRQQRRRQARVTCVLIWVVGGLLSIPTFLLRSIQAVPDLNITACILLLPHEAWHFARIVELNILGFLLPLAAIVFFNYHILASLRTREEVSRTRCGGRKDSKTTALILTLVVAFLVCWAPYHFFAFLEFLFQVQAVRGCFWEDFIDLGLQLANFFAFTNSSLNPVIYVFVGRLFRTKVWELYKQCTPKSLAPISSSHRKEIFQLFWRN
Method: Assessment of Antagonist Potency at B1 and B2 Receptors In Vitro by Measurement of Cytosolic Calcium Ion Concentration with a Plate Reader Fluorimeter in Cells Expressing Recombinant Human B1 or B2 Receptors
Chinese hamster ovary (CHO) cells stably expressing recombinant human B1 (CHO-B1, Euroscreen) or B2 (CHO-B2, Perkin-Elmer) receptors were cultured in Dulbecco's Modified Eagle's Medium (DMEM) containing 10% Fetal Calf Serum (FCS), 100 U/ml penicillin, 0.1 mg/ml streptomycin, 0.25 μg/ml amphotericin B, 1% Minimum Essential Medium Eagle (MEM), non essential amino acid solution, […], 1% pyruvate (for the B2 cell line). Cells were kept at 37° C. in a humidified incubator in an atmosphere of 5% CO2/95% air and were passaged 1:4 three times a week. Cells were plated at 1.5-2.5×10^4 cell/well on standard 96-well microplates, measurements of cytosolic calcium ion concentration ([Ca^2+]i) were carried out 1-2 days after cell plating.
Measurements of [Ca^2+]i were carried out on CHO-B1 and CHO-B2 cells stably expressing human B1 and B2 receptors, respectively. Cells were grown in standard 96-well microplates and before the measurement were loaded with a fluorescent Ca^2+-sensitive dye, fluo-4/AM (2 μM): after removing the culture medium the dye was added to the cells (dissolved in assay buffer: 145 mM NaCl, 5 mM KCl, 2 mM MgCl2, 2 mM CaCl2, 10 mM HEPES, 20 mM D-glucose, 2 mM probenecid, 100 μl/well) and cells were incubated at 37° C. in a humidified incubator in an atmosphere of 5% CO2/95% air for 40-120 min. To stop dye loading cells were washed twice with assay buffer. After washing, various concentrations of the test compounds (diluted in extracellular medium from a DMSO stock solution, final DMSO concentration was <0.1%) or buffer were added to each well depending on the experimental setup. After incubation at 37° C. for 20-25 min. baseline and agonist-evoked changes of [Ca^2+]i were measured column by column with a plate reader fluorimeter (Fluoroskan Ascent, Labsystems). Excitation and detection of emission was carried out from the bottom of the plate. Filters used for Fluo-4: excitation filter—485 nm, emission filter—538 nm. The whole measurement process was performed at 37° C. and was controlled by custom software Inhibitory potency of the test compounds was assessed by measuring the reduction in the agonist-evoked [Ca^2+]i-elevation in the presence of different concentrations of the compounds. The agonists were LysDABK for CHO-B1, and bradykinin for CHO-B2 cells. Agonists were applied at an EC80 concentration, the EC80-values were derived from daily determined dose-response curves. Fluorescence data were expressed as ΔF/F (fluorescence change normalized to baseline). All treatments on a single plate were measured in multiple wells. Data from all wells with the same treatment were averaged and the average values were used for analysis. Inhibitory potency of a compound at a single concentration point was expressed as percent inhibition of the control agonist response. Sigmoidal concentration-inhibition curves were fitted to the data (derived from at least three independent experiments) and IC50-values were determined as the concentration that produces half of the maximal inhibition caused by the compound.

[2] = target: T2, human recombinant bradykinin B1 receptor (Homo sapiens, UniProt P46663); assay: Human recombinant bradykinin B1 receptor binding
T2 construct: host or cells: CHO cells
T2 sequence (P46663 1-353): T1 sequence (P46663 1-353)
Method: 1. Human Recombinant Bradykinin B1 Receptor Binding
Binding assays were carried out on human recombinant bradykinin) receptors (expressed in CHO cells) according to the Euroscreen Technical Data Sheet (Cat.No.:ES-091). 20 μg protein/tube was incubated with [3,4-prolyl-3,4-^3H(N)]-[Des-Arg^10] Kallidin as radioligand. Non specific binding was determined in the presence of 10 μM Lys-des-Arg^9-Bradykinin. The final incubation volume was 250 μl. Samples were incubated for 15 min. at 25° C. then were rapidly vacuum filtered through GF/B filters presoaked for at least 1 h in 0.5% PEI. Radioactivity was determined by liquid scintillation spectroscopy.

[3] = CHO-B1 cells, inhibition of LysDABK (EC80)-evoked [Ca2+]i elevation, read-out: B1 func.
[4] = CHO cell membranes, [3H]-[Des-Arg10] Kallidin radioligand, read-out: B1 binding

Compound | IC50 [1, 3] [µM] | Ki [2, 4] [µM] | IC50 ([1]; reference compounds, functional test, read-out: IC50) [µM] | Ki ([2]; reference compounds, binding test, read-out: Ki) [µM]
N=C(N)N1CCC(CNC(=O)CNC(=O)c2ccc(S(=O)(=O)Nc3ccccc3Oc3ccc(Cl)cc3Cl)cc2)CC1 [Example 14, N-{[(1-Carbamimidoyl-piperidin-4-ylmethyl)-carbamoyl]-methyl}-4-[2-(2,4-dichloro-phenoxy)-phenylsulfamoyl]-benzamide hydrochloride] | < 0.02 | < 0.02 |  | 
O=C(CNC(=O)c1ccc(S(=O)(=O)Nc2ccccc2Oc2ccccc2)cc1)NCCCN1CCC(N2CCCCC2)CC1 [Example 48, N-[(3-[1,4′]Bipiperidinyl-r-yl-propylcarbamoyl)-methyl]-4-(2-phenoxy-phenylsulfamoyl)-benzamide] | < 0.02 | < 0.02 |  | 
O=C(CNC(=O)c1ccc(S(=O)(=O)Nc2ccccc2C(=O)c2ccccc2)cc1)NCC1CCNCC1 [Example 18, 4-(2-Benzoyl-phenylsulfamoyl)-N-{[(piperidin-4-ylmethyl)-carbamoyl]-methyl}-benzamide hydrochloride] | < 0.02 | < 0.02 |  | 
O=C(CNC(=O)c1ccc(S(=O)(=O)Nc2ccccc2Oc2ccc(Cl)cc2Cl)cc1)NCCC1CCNCC1 [Example 22, 4-[2-(2,4-Dichloro-phenoxy)-phenylsulfamoyl]-N-[(2-piperidin-4-yl-ethylcarbamoyl)-methyl]-benzamide acetate] | < 0.02 | < 0.02 |  | 
CN(C)CCCNC(=O)CNC(=O)c1ccc(S(=O)(=O)Nc2ccccc2Oc2ccccc2)cc1 [Example 54, N-[(3-Dimethylamino-propylcarbamoyl)-methyl]-4-(2-phenoxy-phenylsulfamoyl)-benzamide] | < 0.02 | < 0.02 |  | 
O=C(CNC(=O)c1ccc(S(=O)(=O)Nc2ccccc2Oc2ccccc2)cc1)NC1CCNCC1 [Example 66, 4-(2-Phenoxy-phenylsulfamoyl)-N-(piperidin-4-ylcarbamoylmethyl)-benzamide hydrochloride] | < 0.02 | < 0.02 |  | 
CC1CCCCN1CCCNC(=O)CNC(=O)c1ccc(S(=O)(=O)Nc2ccccc2Oc2ccccc2)cc1 (stereo not drawn) [Example 56, N-{[3-(2-Methyl-piperidin-1-yl)-propylcarbamoyl]-methyl}-4-(2-phenoxy-phenylsulfamoyl)-benzamide] | < 0.02 | < 0.02 |  | 
O=C(CNC(=O)c1ccc(S(=O)(=O)Nc2ccccc2Oc2ccc(Br)cc2Cl)cc1)NCC1CCNCC1 [Example 37, 4-[2-(4-Bromo-2-chloro-phenoxy)-phenylsulfamoyl]-N-{[(piperidin-4-ylmethyl)-carbamoyl]-methyl}-benzamide hydrochloride] | < 0.02 | < 0.02 |  | 
CCCN1C(=O)[C@H](NC(=O)Nc2ccc(N3CCC(N4CCCCC4)CC3)cc2)N=C(c2ccc(C)cc2)c2ccccc21 [N-[4-(,4′-bipiperidin)-1′-ylphenyl]-N′-[(3R)-2,3-dihydro-5-(4-methyl-phenyl)-2-oxo-1-propyl-1H-1,4-benzodiazepin-3-yl]-urea, reference compound] |  |  | 0.0645 | 0.0134
O=C(CNC(=O)c1ccc(S(=O)(=O)Nc2ccccc2Oc2ccc(Cl)cc2Cl)cc1)NCCCN1CCCCC1 [Example 2, 4-[2-(2,4-Dichloro-phenoxy)-phenylsulfamoyl]-N-[(3-piperidin-1-yl-propylcarbamoyl)-methyl]-benzamide] | < 0.02 | < 0.02 |  | 
COc1ccc(NS(=O)(=O)c2ccc(C(=O)NCC(=O)NCC3CCNCC3)cc2)c(Oc2ccc(Cl)cc2Cl)c1 [Example 11, 4-[2-(2,4-Dichloro-phenoxy)-4-methoxy-phenylsulfamoyl]-N-{[(piperidin-4-ylmethyl)-carbamoyl]-methyl}-benzamide hydrochloride] | 0.02 to 0.1 | 0.02 to 0.1 |  | 
O=C(CNC(=O)c1ccc(S(=O)(=O)Nc2ccccc2Oc2ccc(Cl)cc2Cl)cc1)NCCCN1CCOCC1 [Example 27, 4-[2-(2,4-Dichloro-phenoxy)-phenylsulfamoyl]-N-[(3-morpholin-4-yl-propylcarbamoyl)-methyl]-benzamide] | < 0.02 | < 0.02 |  | 

From patent US20130029991A1, “New Phenylsulfamoyl Benzamide Derivatives as Bradykinin Antagonists” (priority 2006, published 2013)
